According to patent publication US11964971B2, “Methods and compositions for modulating splicing” (Skyhawk Therapeutics, Inc., priority 2019, dated 2024):

Columns and labels:
[1] = system: MDR1-MDCK cell monolayers; settings: dog, MDCK-MDR1, 120 min, 5 μM, pH 7.4
MDR1 (P-gp) = test: MDCK-MDR1 permeability assay, blood-brain-barrier penetration potential; settings: dog, MDCK-MDR1, pH 7.4, MDCK-MDR1 Efflux Ratio
SMN FL and SMN Δ7 = test: Quantitative splicing assay (SMN) in SMA patient fibroblasts (GM03813); assay type: cell-based; settings: Homo sapiens, Fibroblast; class symbol; read-out: SMN2 Splicing FL EC50 (nM)*
Method: Spinal muscular atrophy (SMA) patient fibroblasts (GM03813, Coriell) are plated in 96-well plates at 50,000 cells/well. […] Treated cells are lysed and cDNA synthesized using the Fast Advanced Cells-to-Ct kit (Thermofisher A35378) according to the manufacturer's instructions. 2 μL of each cDNA are used in qPCR reactions. […] Reactions are run in a Quant Studio 6 qPCR instrument with default settings.

MDR1 = test: in vitro; settings: dog; for Papp A→B at 120 min, 5 μM: MDCK-MDR1, pH 7.4, MDCK-MDR1: Papp A-B (10^−6, cm/s); for Papp B→A at 120 min, 5 μM: MDCK-MDR1, pH 7.4, MDCK-MDR1: Papp B-A (10^−6, cm/s)
SMN protein = SMN protein assay (MSD) in SMA patient fibroblasts (GM03813); assay type: cell-based, human
In short: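 SMA patient fibroblasts GM03813 (7000 cells/well) treated 48 h with compounds from 2.5 μM to 0.6 nM. Lysate SMN protein quantified by MSD immunoassay against an SMN standard curve (1 to 19.5 μg/ml) on each plate, giving absolute amounts.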

Row | SMILES | MDCK-MDR1: % Recov A-B (%) [1] [%] | MDCK-MDR1: % Recov B-A (%) [1] [%] | efflux ratio at 120 min, 5 μM (MDR1 (P-gp)) | EC50 (SMN FL and SMN Δ7) [nM] | Papp A→B at 120 min, 5 μM (MDR1) [×10⁻⁶ cm/s] | Papp B→A at 120 min, 5 μM (MDR1) [×10⁻⁶ cm/s] | EC50 (SMN protein) [nM]
1 | COc1cc(-c2ccc(-c3cnc(N(C)[C@@H]4CC5CC[C@H](N5)[C@@H]4F)cn3)c(O)c2)ncn1 (single isomer, unassigned) [Compound 48E1] | 21 | 44 | 2 | 101 to 500 | 4.15 | 6.9 | 16 to 50
2 | CN(c1cnc(-c2ccc(-c3cn[nH]c3)cc2O)cn1)[C@H]1C[C@@H]2COCC(N2)[C@H]1F (single isomer, unassigned) [Compound 72E2] | 96 | 113 | 8 | 501 to 10000 | 9.82 | 82.5 | 101 to 500
3 | CN(c1cnc(-c2ccc(-c3cn[nH]c3)cc2O)cn1)[C@H]1C[C@]2(C)CCC[C@@](C)(N2)[C@H]1F [Compound 23E2, 2-(5-(((1R,2S,3S,5S)-2-fluoro-1,5-dimethyl-9-azabicyclo[3.3.1]nonan-3-yl)(methyl)amino)pyrazin-2-yl)-5-(1H-pyrazol-4-yl)phenol] | 39 | 65 | 2 | 16 to 50 | 5.71 | 13.6 | 0.01 to 15
4 | CN(c1cnc(-c2ccc(-c3ccn(C)c(=O)c3)cc2O)cn1)[C@@H]1CC2CCC[C@H](N2)[C@@H]1F (single isomer, unassigned) [Compound 83E1] | 78 | 81 | 52 | 101 to 500 | 0.94 | 48.4 | 101 to 500
5 | CN(c1cnc(-c2ccc(-c3cn[nH]c3)cc2O)cn1)[C@H]1C[C@]2(C)CCC(N2)[C@H]1F (single isomer, unassigned) [Compound 28E1] | 66 | 80 | 15 | 101 to 500 | 3.23 | 48.1 | 0.01 to 15
6 | CN(C)C(=O)c1cc2cc(O)c(-c3cnc(N(C)[C@H]4CC5CC[C@@H](N5)[C@H]4F)cn3)cc2o1 (single isomer, unassigned) [Compound 7E2] | 90 | 93 | 31 | 501 to 10000 | 1.92 | 59.9 | 501 to 10000
7 | COc1cc(-c2ccc(-c3cnc(N(C)[C@@H]4C[C@@]5(C)CC[C@](C)(N5)[C@@H]4F)cn3)c(O)c2)cnn1 [Compound 25E1, 2-(5-(((1S,2R,3R,5R)-2-fluoro-1,5-dimethyl-8-azabicyclo[3.2.1]octan-3-yl)(methyl)amino)pyrazin-2-yl)-5-(6-methoxypyridazin-4-yl)phenol] | 45 | 64 | 7 | 501 to 10000 | 5.6 | 39.6 | 501 to 10000
8 | CN(c1cnc(-c2ccc(-c3ccn(C)c(=O)c3)cc2O)cn1)[C@H]1CC2CCC[C@@H](N2)[C@H]1F (single isomer, unassigned) [Compound 5E2] | 78 | 82 | 22 | 101 to 500 | 1.96 | 43 | 16 to 50
9 | CN(c1cnc(-c2cc(F)c(-c3ccn(C)c(=O)c3)cc2O)cn1)[C@H]1C[C@@H]2CCCC(N2)[C@H]1F (single isomer, unassigned) [Compound 12E2] | 72 | 88 | 27 | 501 to 10000 | 2.14 | 57.4 | 16 to 50
10 | CN(c1cnc(-c2cc(F)c(-c3cn[nH]c3)cc2O)cn1)[C@H]1C[C@@H]2CCC(N2)[C@H]1F (single isomer, unassigned) [Compound 40E2] | 59 | 72 | 5 | 16 to 50 | 7.33 | 37.1 | 0.01 to 15
11 | CN(c1cnc(-c2cc(F)c(-c3cnn(CF)c3)cc2O)cn1)[C@H]1C[C@@H]2CCC(N2)[C@H]1F (single isomer, unassigned) [Compound 29E2] | 31 | 50 | 3 | 51 to 100 | 5.59 | 18.3 | 16 to 50
12 | COc1cc(-c2ccc(-c3cnc(N(C)[C@@H]4CC5CC(F)(F)[C@@H](C4)N5)cn3)c(O)c2)cnn1 (single isomer, unassigned) [Compound 68E2] | 66 | 89 | 5 | 501 to 10000 | 9.81 | 47.2 | 501 to 10000
13 | CN(c1cnc(-c2ccc(-c3cnn(C)c3)cc2O)cn1)[C@H]1CC2CC[C@@H](N2)[C@H]1F (single isomer, unassigned) [Compound 3E2] | 53 | 68 | 3 | 101 to 500 | 9.7 | 27.1 | 16 to 50
14 | CN(c1cnc(-c2ccc(-c3ccn(C)c(=O)c3)cc2O)cn1)[C@@H]1CC2CC[C@H](N2)[C@@H]1F (single isomer, unassigned) [Compound 45E1] | 88 | 85 | 37 | 51 to 100 | 1.3 | 47.6 | 101 to 500
